Results reported in patent US7514454B2, “Piperidin-2,6-dione pamoate salts and their use for the treatment of stress-related affective disorders” (Prestwick Pharmaceuticals, Inc., priority 2002, dated 2009).

Experiments:
tryptophan hydroxylase = assay: blockade of tryptophan hydroxylase activation; assay type: biochemical; conditions: activation by metabolic inhibitors such as guanidine and sodium cyanide
[1] = rats, 200 mg/kg/day p.o., cited from earlier work
[2] = about 4 mg/kg/day (200-400 mg/day for human patients); cited from earlier work
[3] = 1 mg b.i.d. (about 30 μg/kg/day), FDA permitted dose levels; cited from earlier work

SMILES | blockade of tryptophan hydroxylase activation (tryptophan hydroxylase) | hepatocyte changes revealed by post-mortem examination ([1]; 1 year, not detected by routine transaminase determinations) | weight loss ([1]; over the 1-year period, immediate and continuing) [%] | effectiveness in the treatment of anxiety and depression [2] | anxiolytic properties [3]
COc1cccc(C2(CCCN(C)C)C(=O)NC(=O)CC2(C)C)c1 (centres unmarked) [AGN 2979 pamoate, 3(3-methoxyphenyl)-3-(3-dimethylaminopropyl)-4,4-dimethyl-piperidine-2,6-dione pamoate] | blocked | – | – | – | –
COc1cccc(C2(CCCN(C)C)C(=O)NC(=O)CC2(C)C)c1.Cl (centres unmarked) [hydrochloride salt of AGN 2979] | – | hepatocyte changes | 40 | effective | only marginally effective
